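Growth conditions: 96-well plates. Treatment: test compound, 48 hours, 5 concentrations. Analysis: linear interpolation between bracketing concentrations; unreached endpoints set to highest concentration. At the GI50, growth is halved. TGI denotes the concentration required for complete inhibition of growth.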
How the values were obtained:
Assay in all cases: DTP human tumour cell line panel, 48 h
[1] = system: SR leukemia
[2] = system: CCRF-CEM leukemia
[3] = system: DLD-1 colon
[4] = system: CAKI-1 renal
[5] = system: IGROV1 ovarian
[6] = system: DMS 273 small cell lung
[7] = system: SF-295 CNS
[8] = system: 786-0 renal
[9] = system: MALME-3M melanoma
[10] = system: UACC-257 melanoma
[11] = system: SK-MEL-28 melanoma
[12] = system: HOP-18 NSCLC
[13] = system: OVCAR-4 ovarian
[14] = system: HOP-62 NSCLC
[15] = system: HL-60(TB) leukemia
[16] = system: SK-MEL-2 melanoma
[17] = system: LOX IMVI melanoma
[18] = system: M19-MEL melanoma
[19] = system: UACC-62 melanoma
[20] = system: SF-268 CNS
[21] = system: EKVX NSCLC
[22] = system: SW-620 colon
[23] = system: NCI-H460 lung
[24] = system: M14 melanoma
[25] = system: RXF 393 renal
[26] = system: HCT-15 colon
[27] = system: KM20L2 colon
[28] = system: OVCAR-3 ovarian
[29] = system: OVCAR-8 ovarian
[30] = system: OVCAR-5 ovarian
[31] = system: HOP-92 NSCLC
[32] = system: XF 498 CNS
[33] = system: LXFL 529 NSCLC
[34] = system: SNB-78 CNS
[35] = system: HCT-116 colon
[36] = system: RPMI-8226 leukemia
[37] = system: NCI-H226 lung
[38] = system: SF-539 CNS
[39] = system: KM12 colon
[40] = system: SNB-75 CNS
[41] = system: A549 NSCLC
[42] = system: SK-MEL-5 melanoma
[43] = system: DMS 114 small cell lung
[44] = system: ACHN renal
[45] = system: UO-31 renal
[46] = system: NCI-H23 lung
[47] = system: MOLT-4 leukemia
[48] = system: HT29 colon
[49] = system: SN12C renal
[50] = system: HCC-2998 colon
[51] = system: TK-10 renal
[52] = system: K-562 leukemia
[53] = system: A498 renal
[54] = system: SNB-19 CNS
[55] = system: SK-OV-3 ovarian
[56] = system: COLO 205 colon
[57] = system: NCI-H522 lung

`NC1CCCCC1.[O]=[Ge].[O]=[Ge].[O]=[Ge][OH].[O]=[Ge][OH]` showed a GI50 [1] greater than 100 µM, a TGI [1] greater than 100 µM and a TGI [2] greater than 100 µM. It also gave a TGI [3] greater than 100 µM, a GI50 [4] greater than 100 µM and a TGI [4] greater than 100 µM. It also gave a TGI [5] greater than 100 µM, a TGI [6] greater than 100 µM and a GI50 [7] greater than 100 µM. It also gave a TGI [7] greater than 100 µM, a GI50 [8] greater than 100 µM and a TGI [8] greater than 100 µM. For the same molecule, the TGI [9] was greater than 100 µM, the TGI [10] was greater than 100 µM and the TGI [11] was greater than 100 µM. It also gave a TGI [12] greater than 100 µM, a TGI [13] greater than 100 µM and a TGI [14] greater than 100 µM. It also gave a TGI [15] greater than 100 µM, a TGI [16] greater than 100 µM and a TGI [17] greater than 100 µM. For the same molecule, the TGI [18] was greater than 100 µM, the TGI [19] was greater than 100 µM and the TGI [20] was greater than 100 µM. The TGI [21] was greater than 100 µM, the TGI [22] was greater than 100 µM and the TGI [23] was greater than 100 µM. For the same molecule, the GI50 [24] was greater than 100 µM, the TGI [24] was greater than 100 µM and the TGI [25] was greater than 100 µM. The TGI [26] was greater than 100 µM, the TGI [27] was greater than 100 µM and the TGI [28] was greater than 100 µM. The TGI [29] was greater than 100 µM, the TGI [30] was greater than 100 µM and the TGI [31] was greater than 100 µM. For the same molecule, the GI50 [32] was greater than 100 µM, the TGI [32] was greater than 100 µM and the GI50 [33] was greater than 100 µM. It also gave a TGI [33] greater than 100 µM, a TGI [34] greater than 100 µM and a TGI [35] greater than 100 µM. For the same molecule, the TGI [36] was greater than 100 µM, the GI50 [37] was greater than 100 µM and the TGI [37] was greater than 100 µM. It also gave a TGI [38] greater than 100 µM, a TGI [39] greater than 100 µM and a TGI [40] greater than 100 µM. The TGI [41] was greater than 100 µM, the TGI [42] was greater than 100 µM and the TGI [43] was greater than 100 µM. For the same molecule, the GI50 [44] was greater than 100 µM, the TGI [44] was greater than 100 µM and the GI50 [45] was greater than 100 µM. The TGI [45] was greater than 100 µM, the TGI [46] was greater than 100 µM and the TGI [47] was greater than 100 µM. It also gave a TGI [48] greater than 100 µM, a TGI [49] greater than 100 µM and a TGI [50] greater than 100 µM. The GI50 [51] was greater than 100 µM, the TGI [51] was greater than 100 µM and the TGI [52] was greater than 100 µM. For the same molecule, the TGI [53] was greater than 100 µM and the TGI [54] was greater than 100 µM.
`COc1ccc(NC(=O)C(=O)Cc2nc3ccc([N+](=O)[O-])cc3[nH]c2=O)c(OC)c1` showed a TGI [2] greater than 100 µM, a TGI [3] greater than 100 µM and a TGI [4] greater than 100 µM. The TGI [5] was greater than 100 µM, the TGI [6] was greater than 100 µM and the TGI [55] was greater than 100 µM. For the same molecule, the TGI [56] was greater than 100 µM, the TGI [7] was greater than 100 µM and the TGI [8] was greater than 100 µM. It also gave a TGI [9] greater than 100 µM, a TGI [10] greater than 100 µM and a TGI [11] greater than 100 µM. It also gave a TGI [12] greater than 100 µM, a TGI [13] greater than 100 µM and a TGI [15] greater than 100 µM. The TGI [16] was greater than 100 µM, the TGI [17] was greater than 100 µM and the TGI [18] was greater than 100 µM. It also gave a TGI [19] greater than 100 µM, a TGI [21] greater than 100 µM and a TGI [22] greater than 100 µM. It also gave a TGI [23] greater than 100 µM, a TGI [24] greater than 100 µM and a TGI [25] greater than 100 µM. It also gave a TGI [26] greater than 100 µM, a TGI [27] greater than 100 µM and a TGI [28] greater than 100 µM. It also gave a TGI [57] greater than 100 µM, a TGI [30] greater than 100 µM and a TGI [31] greater than 100 µM. It also gave a TGI [33] greater than 100 µM, a TGI [35] greater than 100 µM and a TGI [37] greater than 100 µM. For the same molecule, the TGI [38] was greater than 100 µM, the TGI [39] was greater than 100 µM and the TGI [40] was greater than 100 µM. For the same molecule, the TGI [41] was greater than 100 µM, the TGI [42] was greater than 100 µM and the TGI [43] was greater than 100 µM. It also gave a TGI [44] greater than 100 µM, a TGI [45] greater than 100 µM and a TGI [46] greater than 100 µM. The TGI [47] was greater than 100 µM, the TGI [48] was greater than 100 µM and the TGI [50] was greater than 100 µM. It also gave a TGI [51] greater than 100 µM, a TGI [52] greater than 100 µM and a TGI [53] greater than 100 µM. For the same molecule, the TGI [54] was greater than 100 µM.
